Source: patent US20070053975A1, “Ramipril formulation” (Selamine Limited, priority 2005, published 2007)

Legend:
[1] = Stability of Ramipril on exposure to stomach juices / acid pH; assay type: physicochemical
[2] = oral administration, fasted state; cited from earlier work
[3] = cited from earlier work

Row | SMILES | Stability on exposure to stomach juices (acid pH) [1] | Time to peak plasma concentrations [2] | Absorption in the presence of food [3]
1 | CCOC(=O)[C@H](CCc1ccccc1)N[C@@H](C)C(=O)N1[C@H](C(=O)O)C[C@@H]2CCC[C@@H]21 [Ramipril, (2S,3aS,6aS)-1[(S)-N-[(S)-1-carboxy-3-phenylpropyl]alanyl]octahydrocyclopenta[b]pyrrole-2-carboxylic acid, 1-ethyl ester] | breaks down | one | 
2 | CC(=O)Oc1ccccc1C(=O)O [aspirin] |  |  | delayed
